According to patent US20230339981A1, “KRAS G12D MODULATING COMPOUNDS” (priority 2022, published 2023):

Legend:
GDP-loaded KRAS G12D = GDP-loaded KRAS G12D (Homo sapiens (Human), UniProt P01116, G12D); experiment: KRAS G12D (GDP) biochemical assay (TR-FRET probe displacement); format: binding; conditions: 2 hours
Outline: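 Compound pre-incubated 30 min with GDP-loaded KRAS G12D in 50 mM Hepes pH 7.4, 150 mM NaCl, 5 mM MgCl2, 0.005% Tween-20, then Eu-streptavidin and TR-FRET probe added. After 2 h at room temperature, TR-FRET ratio read; IC50 is 50% ratio decrease, sigmoidal fit.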

AsPC-1 (KRAS G12D) cells = experiment: 3D cell viability assay (spheroids, CellTiter-Glo 3D); format: cell-based; conditions: AsPC-1 cells, 3D spheroids, 4 days
Method: Example C. 3D Cell Viability Assay
Compounds were tested in a 384-well format for their ability to inhibit the viability of AsPC-1 (KRAS G12D) cells in 3D assays. On day 0, 1000 cells/well (80 μL volume per well) in DMEM with 10% FBS, and Penicillin-Streptomycin-Glutamine were plated in 384-well Ultra-Low Attachment Spheroid Microplates (Corning, Catalog #3830) on the BioTEK EL406 liquid dispenser with a 5 μL dispensing cassette (BioTek 7170011). The plates were incubated at 37° C., 5% CO2 for 3 days to allow spheroid formation. On day 3, compounds were serially diluted (1:3) in DMSO. The Biomek FX was used to add 400 nL of test molecule per well. The plates were incubated at 37° C., 5% CO2 for 4 days before addition of CellTiter-Glo 3D (Promega, Catalog #9683) reagent and measurement of luminescence signal. EC50 values were defined as the compound concentration that causes a 50% decrease in luminescence signal and were calculated using a sigmoidal dose-response model to generate curve fits.

GP2D (KRAS G12D) cells = experiment: 2D cell viability assay (CellTiter-Glo); format: cell-based; conditions: 4 days
Outline: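 GP2D (KRAS G12D) cells, 1000/well in RPMI + 10% FBS, were plated onto compound (1:3 DMSO series) and grown 4 days at 37 °C, 5% CO2 in 2D. CellTiter-Glo luminescence was read; EC50 is the concentration giving 50% signal decrease, from sigmoidal fit.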

Chain of GDP-loaded KRAS G12D (P01116-2 other isoform, or with tags, fused parts or gaps G12D): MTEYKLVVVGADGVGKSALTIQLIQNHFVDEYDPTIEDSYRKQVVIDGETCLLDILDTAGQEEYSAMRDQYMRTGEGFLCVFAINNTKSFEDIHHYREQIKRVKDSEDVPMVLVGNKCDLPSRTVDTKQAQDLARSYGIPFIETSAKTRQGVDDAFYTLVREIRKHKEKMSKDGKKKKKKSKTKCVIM

Structure (SMILES) | IC50 (GDP-loaded KRAS G12D) | EC50 (AsPC-1 (KRAS G12D) cells; Homo sapiens, ASPC1, 96 h) | EC50 (GP2D (KRAS G12D) cells; GP2d, 96 h) | EC50 (AsPC-1 (KRAS G12D) cells) | EC50 (GP2D (KRAS G12D) cells)
Oc1cc(-c2nc3c4c(nc(OC[C@@]56CCCN5C[C@H](F)C6)nc4c2F)N2C[C@H]4CC[C@H](N4)[C@H]2CO3)c2c(OC(F)(F)F)cccc2c1 [Example 3, 4-((5aS,6S,9R)-1-fluoro-12-(((2R,7aS)-2-fluorotetrahydro-1H-pyrrolizin-7a(5H)-yl)methoxy)-5a,6,7,8,9,10-hexahydro-5H-4-oxa-3,10a,11,13,14-pentaaza-6,9-methanonaphtho[1,8-ab]heptalen-2-yl)-5-(trifluoromethoxy)naphthalen-2-ol] | 2 nM | 160 nM | 24 nM | – | –
C#Cc1c(F)ccc2cc(O)cc(-c3nc4c5c(nc(OC[C@@]67CCCN6CC(OC(F)(F)F)C7)nc5c3F)N3C[C@H]5CC[C@H](N5)[C@H]3CC4)c12 (stereo partly drawn) [Example 139, 5-ethynyl-6-fluoro-4-((5aR,6S,9R)-1-fluoro-12-((cis-2-(trifluoromethoxy)tetrahydro-1H-pyrrolizin-7a(5H)-yl)methoxy)-4,5,5a,6,7,8,9,10-octahydro-3,10a,11,13,14-pentaaza-6,9-methanonaphtho[1,8-ab]heptalen-2-yl)naphthalen-2-ol] | 0.1 nM | 4.2 nM | 0.6 nM | – | –
C#Cc1c(F)ccc2cc(O)cc(-c3nc4c5c(nc(OC[C@]67CCCN6C[C@@H](OC(F)(F)F)C7)nc5c3F)N3C[C@H]5CC[C@H](N5)[C@H]3CC4)c12 (stereo in doubt) [Example 141, 5-ethynyl-6-fluoro-4-((5aR,6S,9R)-1-fluoro-12-((trans-2-(trifluoromethoxy)tetrahydro-1H-pyrrolizin-7a(5H)-yl)methoxy)-4,5,5a,6,7,8,9,10-octahydro-3,10a,11,13,14-pentaaza-6,9-methanonaphtho[1,8-ab]heptalen-2-yl)naphthalen-2-ol] | 0.2 nM | 3.7 nM | 0.4 nM | – | –
Oc1cc(-c2nc3c4c(nc(OC[C@@]56CCCN5C[C@H](F)C6)nc4c2F)N2C[C@H]4CC[C@H](N4)[C@H]2CC3)c2c(F)c(F)ccc2c1 [Example 27, 5,6-difluoro-4-((5aR,6S,9R)-1-fluoro-12-(((2R,7aS)-2-fluorotetrahydro-1H-pyrrolizin-7a(5H)-yl)methoxy)-4,5,5a,6,7,8,9,10-octahydro-3,10a,11,13,14-pentaaza-6,9-methanonaphtho[1,8-ab]heptalen-2-yl)naphthalen-2-ol] | 0.7 nM | 29 nM | 4 nM | – | –
C#Cc1c(F)ccc2cc(O)cc(-c3nc4c5c(nc(OCC6(CN7CCC(CC(F)(F)F)CC7)CC6)nc5c3F)N3C[C@H]5CC[C@H](N5)[C@H]3CC4)c12 [Example 167, 5-ethynyl-6-fluoro-4-((5aR,6S,9R)-1-fluoro-12-((1-((4-(2,2,2-trifluoroethyl)piperidin-1-yl)methyl)cyclopropyl)methoxy)-4,5,5a,6,7,8,9,10-octahydro-3,10a,11,13,14-pentaaza-6,9-methanonaphtho[1,8-ab]heptalen-2-yl)naphthalen-2-ol] | < 0.1 nM | 32 nM | 0.7 nM | – | –
C#Cc1c(F)ccc2cc(O)cc(-c3nc4c5c(nc(OC[C@@]67CCCN6[C@H](COc6cnc(C(F)(F)F)cn6)CC7)nc5c3F)N3C[C@H]5CC[C@H](N5)[C@H]3CC4)c12 [Example 155, 5-ethynyl-6-fluoro-4-((5aR,6S,9R)-1-fluoro-12-(((3S,7aS)-3-(((5-(trifluoromethyl)pyrazin-2-yl)oxy)methyl)tetrahydro-1H-pyrrolizin-7a(5H)-yl)methoxy)-4,5,5a,6,7,8,9,10-octahydro-3,10a,11,13,14-pentaaza-6,9-methanonaphtho[1,8-ab]heptalen-2-yl)naphthalen-2-ol] | 0.1 nM | 5.2 nM | 0.3 nM | – | –
C#Cc1c(F)ccc2cc(O)cc(-c3nc4c5c(nc(OCC6(CN7CCC(OC)(C(F)(F)F)CC7)CC6)nc5c3F)N3C[C@H]5CC[C@H](N5)[C@H]3CC4)c12 [Example 168, 5-ethynyl-6-fluoro-4-((5aR,6S,9R)-1-fluoro-12-((1-((4-methoxy-4-(trifluoromethyl)piperidin-1-yl)methyl)cyclopropyl)methoxy)-4,5,5a,6,7,8,9,10-octahydro-3,10a,11,13,14-pentaaza-6,9-methanonaphtho[1,8-ab]heptalen-2-yl)naphthalen-2-ol] | 0.2 nM | 24 nM | 0.5 nM | – | –
C#Cc1c(F)ccc2cc(O)cc(-c3nc4c5c(nc(OC[C@@]67CCCN6[C@H](COC(C6CC6)C(F)(F)F)CC7)nc5c3F)N3C[C@H]5CC[C@H](N5)[C@H]3CC4)c12 (stereo partly drawn) [Example 147, 4-((5aR,6S,9R)-12-(((3S,7aS)-3-((1-cyclopropyl-2,2,2-trifluoroethoxy)methyl)tetrahydro-1H-pyrrolizin-7a(5H)-yl)methoxy)-1-fluoro-4,5,5a,6,7,8,9,1O-octahydro-3,10a,11,13,14-pentaaza-6,9-methanonaphtho[1,8-ab]heptalen-2-yl)-5-ethynyl-6-fluoronaphthalen-2-ol] | < 0.1 nM | – | – | 19 nM | 1.3 nM
C#Cc1c(F)ccc2cccc(-c3nc4c5c(nc(OC[C@@]67CCCN6C[C@H](F)C7)nc5c3F)N3C[C@H]5CC[C@H](N5)[C@@H]3CC4)c12 [Example 170, (5aS,6S,9R)-2-(8-ethynyl-7-fluoronaphthalen-1-yl)-1-fluoro-12-(((2R,7aS)-2-fluorotetrahydro-1H-pyrrolizin-7a(5H)-yl)methoxy)-4,5,5a,6,7,8,9,10-octahydro-3,10a,11,13,14-pentaaza-6,9-methanonaphtho[1,8-ab]heptalene] | 18.1 nM | > 1000 nM | 100 nM | – | –
C#Cc1c(F)ccc2cc(O)cc(-c3nc4c5c(nc(OCC6(CN7CCC(OC(F)(F)F)CC7)CC6)nc5c3F)N3C[C@H]5CC[C@H](N5)[C@H]3CCC4)c12 [Example 161, 5-ethynyl-6-fluoro-4-((6aR,7S,10R)-1-fluoro-13-((1-((4-(trifluoromethoxy)piperidin-1-yl)methyl)cyclopropyl)methoxy)-5,6,6a,7,8,9,10,11-octahydro-4H-3,11a,12,14,15-pentaaza-7,10-methanocyclohepta[4,5]cycloocta[1,2,3-de]naphthalen-2-yl)naphthalen-2-ol] | 0.3 nM | 23 nM | 0.3 nM | – | –
C#Cc1c(F)ccc2cc(O)cc(-c3nc4c5c(nc(OC[C@@]67CCCN6C[C@@]6(CC6(F)F)C7)nc5c3F)N3C[C@H]5CC[C@H](N5)[C@H]3CC4)c12 [Example 122, 4-((5aR,6S,9R)-12-(((1S,7a'S)-2,2-difluorodihydro-1′H,3′H-spiro[cyclopropane-1,2′-pyrrolizin]-7a′(5′H)-yl)methoxy)-1-fluoro-4,5,5a,6,7,8,9,10-octahydro-3,10a,11,13,14-pentaaza[6,9]methanonaphtho[1,8-ab]heptalen-2-yl)-5-ethynyl-6-fluoronaphthalen-2-ol] | < 0.1 nM | 2.9 nM | 0.1 nM | – | –
C#Cc1c(F)ccc2cccc(-c3nc4c5c(nc(OC[C@@]67CCCN6[C@H](COC(C6CC6)C(F)(F)F)CC7)nc5c3F)N3C[C@H]5CC[C@H](N5)[C@H]3CC4)c12 (stereo partly drawn) [Example 111, (5aR,6S,9R)-12-(((3S,7aS)-3-((1-cyclopropyl-2,2,2-trifluoroethoxy)methyl)tetrahydro-1H-pyrrolizin-7a(5H)-yl)methoxy)-2-(8-ethynyl-7-fluoronaphthalen-1-yl)-1-fluoro-4,5,5a,6,7,8,9,10-octahydro-3,10a,11,13,14-pentaaza-6,9-methanonaphtho[1,8-ab]heptalene] | 0.7 nM | 360 nM | 69.9 nM | – | –
